One block for each compound: values may come before it. Active and inactive are the calls of the source. The rule behind the calls is not given here.
How the values were obtained:
Quadruplex DNA [1] = assay: Binding affinity to G-quadruplex DNA HRAS (unknown origin) by fluorescence spectroscopic analysis; assay type: nucleic-acid assay
HepG2 [2] = assay: Cytotoxicity against human HepG2 cells assessed as reduction in cell viability incubated for 48 hrs by MTT assay; assay type: functional, cell-based; settings: HepG2, 48 h
Quadruplex DNA [3] = assay: Binding affinity to G-quadruplex DNA ds26 (unknown origin) by fluorescence spectroscopic analysis; assay type: nucleic-acid assay
[4] = Cytotoxicity against human L02 cells assessed as reduction in cell viability incubated for 48 hrs by MTT assay; assay type: toxicity, cell-based
HepG2 [5] = assay: Inhibition of c-MYC transcription in human HepG2 cells up to 10 uM incubated for 48 hrs by RT-qPCR analysis; assay type: functional, cell-based
Quadruplex DNA [6] = assay: Binding affinity to G-quadruplex DNA pu22 mutant (unknown origin) by fluorescence spectroscopic analysis; assay type: nucleic-acid assay
HepG2 [7] = assay: Downregulation of c-MYC expression level in human HepG2 cells incubated for 48 hrs by Western blotting analysis; assay type: functional, cell-based; settings: dose 0-10 µM
HCT-116 = assay: Cytotoxicity against human HCT-116 cells assessed as reduction in cell viability incubated for 48 hrs by MTT assay; assay type: functional, cell-based; settings: HCT-116, 48 h
Quadruplex DNA [8] = assay: Binding affinity to G-quadruplex DNA pu22 (unknown origin) assessed as melting temperature at 10 uM by circular dichroism analysis
Quadruplex DNA [9] = assay: Binding affinity to G-quadruplex DNA c-kit1 (unknown origin) by fluorescence spectroscopic analysis; assay type: nucleic-acid assay
Quadruplex DNA [10] = assay: Binding affinity to G-quadruplex DNA pu22 (unknown origin) by fluorescence spectroscopic analysis; assay type: nucleic-acid assay
[11] = Cytotoxicity against human NCM460 cells assessed as reduction in cell viability incubated for 48 hrs by MTT assay; assay type: toxicity, cell-based
Quadruplex DNA [12] = assay: Binding affinity to G-quadruplex DNA VEGF (unknown origin) by fluorescence spectroscopic analysis; assay type: nucleic-acid assay
Quadruplex DNA [13] = assay: Binding affinity to G-quadruplex DNA htg22 (unknown origin) by fluorescence spectroscopic analysis; assay type: nucleic-acid assay
HepG2 [14] = assay: Antitumor activity against human HepG2 cells xenografted in BALB/C-nu/nu mouse assessed as decrease in c-MYC expression in tumor tissue at 15 mg/kg, ip administered every other day for 28 days by immunohistochemical analysis; assay type: functional, organism-based; settings: time 28.0 day
[15] = Toxicity in BALB/C-nu/nu mouse xenografted with human HepG2 cells assessed as sign of discomfort at 15 mg/kg, ip administered every other day for 28 days; assay type: organism-based; settings: in vivo, 672 h, time 28 day
HepG2 [16] = assay: Disruption of NM23-H2/c-MYC G quadruplex DNA interaction in human HepG2 cells at 1.25 uM incubated for 1 hr by ChIP assay; assay type: cell-based
[17] = Toxicity in BALB/C-nu/nu mouse xenografted with human HepG2 cells assessed as abnormality in kidney at 15 mg/kg, ip administered every other day for 28 days by hematoxylin and eosin staining method; assay type: organism-based; settings: in vivo, 672 h, time 28 day
[18] = Toxicity in BALB/C-nu/nu mouse xenografted with human HepG2 cells assessed as sign of pain at 15 mg/kg, ip administered every other day for 28 days; assay type: organism-based; settings: in vivo, 672 h, time 28 day
HepG2 [19] = assay: Antitumor activity against human HepG2 cells xenografted in BALB/C-nu/nu mouse assessed as reduction in tumor volume at 15 mg/kg, ip administered every other day for 28 days; assay type: functional, organism-based; settings: time 28.0 day
[20] = Toxicity in nude mouse assessed as mortality at 30 mg/kg administered for 5 days; assay type: organism-based; settings: in vivo, 120 h, time 5 day
HepG2 [21] = assay: Antitumor activity against human HepG2 cells xenografted in BALB/C-nu/nu mouse assessed as tumor growth inhibition at 15 mg/kg, ip administered every other day for 28 days; assay type: functional; settings: HepG2, 672 h, time 28 day, read-out: TGI
CA46 = assay: Inhibition of c-MYC G-quadruplex exon 1 transcription in human CA46 cells incubated for 48 hrs by RT-qPCR analysis; assay type: functional, cell-based; settings: dose 1.25-2.5 µM
HepG2 [22] = assay: Effect on cell cycle distribution in human HepG2 cells assessed as accumulation of cells in S phase at 1.25 to 5 uM incubated for 48 hrs by PI staining based flow cytometric analysis; assay type: functional; settings: dose 1.25-5 µM
[23] = Toxicity in BALB/C-nu/nu mouse xenografted with human HepG2 cells assessed as sign of distress at 15 mg/kg, ip administered every other day for 28 days; assay type: organism-based; settings: in vivo, 672 h, time 28 day
[24] = Toxicity in BALB/C-nu/nu mouse xenografted with human HepG2 cells assessed as abnormality in lung at 15 mg/kg, ip administered every other day for 28 days by hematoxylin and eosin staining method; assay type: organism-based; settings: in vivo, 672 h, time 28 day
[25] = Toxicity in BALB/C-nu/nu mouse xenografted with human HepG2 cells assessed as abnormality in liver at 15 mg/kg, ip administered every other day for 28 days by hematoxylin and eosin staining method; assay type: organism-based; settings: in vivo, 672 h, time 28 day
HepG2 [26] = assay: Induction of apoptosis in human hepG2 cells assessed as early apoptotic cells at 1.25 to 5 uM incubated for 48 hrs by Annexin V-FITC and propidium iodide staining based flow cytometric analysis; assay type: functional; settings: dose 1.25-5 µM
[27] = Toxicity in BALB/C-nu/nu mouse xenografted with human HepG2 cells assessed as changes in body weight at 15 mg/kg, ip administered every other day for 28 days; assay type: organism-based; settings: in vivo, 672 h, time 28 day
[28] = Disruption of NM23-H2/c-MYC G quadruplex DNA (unknown origin) interaction incubated for 1 hr by ELISA
HepG2 [29] = assay: Inhibition of colony formation in human HepG2 cells at 1 uM measured after 14 days by crystal violet staining based assay; assay type: functional, cell-based; settings: time 14.0 day
[30] = Toxicity in nude mouse assessed as changes in body weight at 30 mg/kg administered for 5 days; assay type: organism-based; settings: in vivo, 120 h, time 5 day
HepG2 [31] = assay: Antitumor activity against human HepG2 cells xenografted in BALB/C-nu/nu mouse assessed as reduction in tumor weight at 15 mg/kg, ip administered every other day for 28 days; assay type: functional, organism-based; settings: time 28.0 day
[32] = Toxicity in BALB/C-nu/nu mouse xenografted with human HepG2 cells assessed as abnormality in heart at 15 mg/kg, ip administered every other day for 28 days by hematoxylin and eosin staining method; assay type: organism-based; settings: in vivo, 672 h, time 28 day
[33] = Toxicity in BALB/C-nu/nu mouse xenografted with human HepG2 cells assessed as abnormality in spleen at 15 mg/kg, ip administered every other day for 28 days by hematoxylin and eosin staining method; assay type: organism-based; settings: in vivo, 672 h, time 28 day

Kd (Quadruplex DNA [1]): > 20 µM | Kd (Quadruplex DNA [3]): > 20 µM | Kd (Quadruplex DNA [6]): > 20 µM | Tm (Quadruplex DNA [8]): 80.1 °C | Kd (Quadruplex DNA [9]): 6.5 µM | Kd (Quadruplex DNA [10]): 0.4 µM | Kd (Quadruplex DNA [12]): 7.6 µM | Kd (Quadruplex DNA [13]): 8.8 µM
SMILES: CCn1c2ccccc2c2cc(/C=C/c3[se]c4ccccc4[n+]3C)ccc21
IC50 (HepG2 [2]): 1.6 µM | IC50 at 48 h [4]: 27.3 µM | inhibition (HepG2 [5]): Active | Activity (HepG2 [7]): Dose-Dependent Effect | IC50 (HCT-116): 3.4 µM | IC50 at 48 h [11]: 29.2 µM

SMILES: CCn1c2ccccc2c2cc(/C=C/c3nc4ccccc4[se]3)ccc21
IC50 (HepG2 [2]): 13.4 µM | IC50 (HCT-116): 19.5 µM | IC50 at 48 h [11]: > 100 µM

SMILES: CCn1c2ccccc2c2cc(/C=C/c3nc4ccccc4s3)ccc21
IC50 (HepG2 [2]): 52.1 µM | IC50 (HCT-116): > 100 µM | IC50 at 48 h [11]: > 100 µM

SMILES: C(=C\c1nc2ccccc2o1)/c1ccc2c(c1)c1ccccc1n2Cc1ccccc1
IC50 (HepG2 [2]): 5.7 µM | IC50 (HCT-116): 25.9 µM | IC50 at 48 h [11]: > 100 µM

SMILES: CN(C)CCCn1c2ccccc2c2cc(/C=C/c3nc4ccccc4s3)ccc21
IC50 (HepG2 [2]): 21.3 µM | IC50 (HCT-116): 42.9 µM | IC50 at 48 h [11]: > 100 µM

SMILES: CCn1c2ccccc2c2cc(/C=C/c3oc4ccc5ccccc5c4[n+]3C)ccc21
IC50 (HepG2 [2]): 93.3 µM | IC50 (HCT-116): 26.3 µM | IC50 at 48 h [11]: > 100 µM

SMILES: CN(C)CCCn1c2ccccc2c2cc(/C=C/c3[se]c4ccccc4[n+]3C)ccc21
IC50 (HepG2 [2]): 26.2 µM | IC50 (HCT-116): 15 µM | IC50 at 48 h [11]: 87.7 µM

SMILES: CN(C)CCCn1c2ccccc2c2cc(/C=C/c3nc4ccccc4[se]3)ccc21
IC50 (HepG2 [2]): > 100 µM | IC50 (HCT-116): 34.4 µM | IC50 at 48 h [11]: > 100 µM

SMILES: C(=C\c1nc2ccccc2s1)/c1ccc2c(c1)c1ccccc1n2Cc1ccccc1
IC50 (HepG2 [2]): 53.2 µM | IC50 (HCT-116): > 100 µM | IC50 at 48 h [11]: > 100 µM

SMILES: C[n+]1c(/C=C/c2ccc3c(c2)c2ccccc2n3Cc2ccccc2)[se]c2ccccc21.[I-]
Kd (Quadruplex DNA [1]): > 20 µM | Activity (HepG2 [14]): Active | IC50 (HepG2 [2]): 3.5 µM | Activity [15]: Non-Toxic | Kd (Quadruplex DNA [3]): > 20 µM | Activity (HepG2 [16]): Active | Activity [17]: Non-Toxic | IC50 at 48 h [4]: > 100 µM | Activity [18]: Non-Toxic | Activity (HepG2 [19]): Active | inhibition (HepG2 [5]): Active | Activity [20]: Toxic | inhibition in vivo at 15 mg/kg (HepG2 [21]): 65.8% | Kd (Quadruplex DNA [6]): > 20 µM | Activity (HepG2 [7]): Dose-Dependent Effect | IC50 (HCT-116): 4.1 µM | inhibition (CA46): Dose-Dependent Effect | Activity (HepG2 [22]): 14.6% | Tm (Quadruplex DNA [8]): 78.3 °C | Activity [23]: Non-Toxic | Activity [24]: Non-Toxic | Kd (Quadruplex DNA [9]): 9.6 µM | Kd (Quadruplex DNA [10]): 0.9 µM | Activity [25]: Non-Toxic | Activity (HepG2 [26]): 1.7% | Activity [27]: Non-Toxic | IC50 at 48 h [11]: 77.6 µM | Kd (Quadruplex DNA [12]): 17.9 µM | IC50 [28]: 9.8 µM | inhibition (HepG2 [29]): Active | Activity [30]: Toxic | Activity (HepG2 [31]): Active | Activity [32]: Non-Toxic | Kd (Quadruplex DNA [13]): > 20 µM | Activity [33]: Non-Toxic

SMILES: CN(C)CCCn1c2ccccc2c2cc(/C=C/c3nc4ccccc4o3)ccc21
IC50 (HepG2 [2]): 21.6 µM | IC50 (HCT-116): 36.9 µM | IC50 at 48 h [11]: > 100 µM

SMILES: CN(C)CCCn1c2ccccc2c2cc(/C=C/c3oc4ccccc4[n+]3C)ccc21
IC50 (HepG2 [2]): 5.9 µM | IC50 (HCT-116): 4.7 µM | IC50 at 48 h [11]: 35.6 µM
